Test: Water solubility (dissolution in water)
Description: Stability of this compound was determined by dissolving small amounts in water, pH 7.8 phosphate buffer and methanol.
The stability of the product is determined by dissolving in deionized water and pH 7.26 phosphate buffer.

## Nc1c2c(nc3ccccc13)CCCC2 [Tacrine, tacrine]
  WATER SOLUBILITY (in words): Insoluble
